Measurements reported in patent US7687453B2, “Method for administering insulin to the buccal region” (Generex Pharmaceuticals Incorporated, priority 1998, dated 2010).

Legend:
Assay type in all cases: in vivo, human
blood glucose [1] = assay: Blood glucose after insulin injection vs oral insulin drops, fasted healthy non-diabetic volunteers (Example 1); parameters: unit not given here; settings: 10 units sub-cutaneous injection, avg of 5 fasted healthy volunteers
Description: In one set of tests, five healthy non-diabetic human volunteers were tested with insulin, by injection. In another set of tests the volunteers were tested with insulin, taken orally. The volunteers fasted from midnight prior to the test, with no food being taken during the 4 hour study.
(§1) On the first day, the volunteers received 10 units of insulin by injection (regular fast acting insulin, available from Eli Lilly). On the second day, the volunteers received 100 units (1 mL volume per drop, approximately 20 drops) of the above-prepared oral insulin (10 times the injection dose). In both tests, blood glucose levels were monitored every 15 minutes by Bayer's Glucometer Elite.

blood glucose [2] = assay: Blood glucose, oral mixed micellar insulin vs injection, fasted Type II diabetic volunteers (Example 8); settings: injection 10 units, avg of 10 fasted Type II diabetics
Description: In one set of tests, ten Type II diabetic human volunteers who took insulin, by injection three times a day, were studied. In another set of tests the volunteers were tested with insulin, faken orally. The volunteers fasted from midnight prior to the test, with no food being taken during the 4 hour study. On the first day, the volunteers received 10 units insulin by injection (regular fast acting insulin, available from Eli Lilly). On the second day, the volunteers received 30 units (1 mL volume per drop, approximately 20 drops) of the above-prepared oral insulin (3 times the injection dose). In both tests, blood glucose levels were monitored every 15 minutes by Bayer's Glucometer Elite.

blood glucose [3] = assay: Blood glucose, nasal mixed micellar insulin vs injection (Example 10); settings: injection 10 units, avg of ten volunteers
Description: The formulation of Example 9 was tested in a manner similar to that indicated in Example 8 except that the formulation of the present invention was administered nasally.
On the first day, the ten volunteers each received 10 units insulin injection (regular fast acting, Eli Lilly). On the second day, the volunteers received 20 units of the “oral” insulin of Example 9 (2 times the injection dose). The “oral” insulin was administered as drops (0.4 mL volume per drop, approximately 4 large drops in total, i.e. two drops in each nostril).

meal glucose [4] = assay: Meal glucose, oral mixed micellar insulin vs injection, healthy non-diabetic volunteers (Example 11); settings: injection 10 units, ten healthy volunteers, meal 30 min after dosing
Description: The mixed micellar formulation of Example 9 was tested in healthy volunteers under controlled conditions to determine the oral insulin effect on meal glucose when compared to injected insulin.
In one set of tests, ten healthy non-diabetic human volunteers were tested with insulin, by injection. In another set of tests the volunteers were tested with insulin, taken orally. The volunteers fasted from midnight prior to the tests, with food being taken 30 minutes after dosing. The meals were standard Sastacal 240 mL liquid diet approved by the Diabetic Society, containing 400 calories.
as §1, with “units” for “units of”, “30” for “100”, “units” for “units (1 mL volume per drop, approximately 20 drops)”, “(3” for “(10”

meal glucose [5] = assay: Meal glucose, oral mixed micellar insulin vs injection, Type II diabetic volunteers (Example 12); settings: injection 10 units, avg of 10 Type II diabetics, meal 30 min after dosing
Description: The mixed micellar formulation of Example 9 was tested in diabetic volunteers under controlled conditions to determine the oral insulin effect on meal glucose when compared to injected insulin.
In one set of tests, ten Type II diabetic human volunteers who took insulin, by injection three times a day, were studied. In another set of tests the volunteers were tested with insulin, taken orally. The volunteers fasted from midnight prior to the tests, with food being taken 30 minutes after dosing. The meals were standard Sastacal 240 mL liquid diet approved by the Diabetic Society, containing 400 calories.
as §1, with “units” for “units of”, “30” for “100”, “units” for “units (1 mL volume per drop, approximately 20 drops)”, “(3” for “(10”

blood glucose [6] = assay: Blood glucose, oral mixed micellar insulin (bacitracin, evening primrose oil) vs injection, fasted volunteers (Example 14); settings: injection 10 units, avg of six fasted volunteers
Description: Six human volunteers were studied. The volunteers fasted from midnight prior to the test, with no food being taken during the 4 hour study. On the first day, the volunteers received 10 units insulin by injection (regular fast acting insulin, available from Eli Lilly). On the second day, the volunteers received 20 units of the above-prepared oral insulin (twice the injection dose). In both tests, blood glucose levels were monitored at intervals by Bayer's Glucometer Elite.

Question: How did the Blood glucose level (blood glucose [1]; 0 min) turn out when “regular fast acting insulin: regular fast acting insulin, available from Eli Lilly, given by injection (10 units)” was run?
Answer: 5.8

Question: What about the Blood glucose level (blood glucose [1]; 15 min) of the same substance?
Answer: 5.8

Question: And the Blood glucose level (blood glucose [1]; 30 min)?
Answer: 5.4

Question: And the Blood glucose level (blood glucose [1]; 60 min)?
Answer: 5.0

Question: What about the Blood glucose level (blood glucose [1]; 75 min) of the same substance?
Answer: 4.6

Question: What about the Blood glucose level (blood glucose [1]; 90 min) of the same substance?
Answer: 4.3

Question: And the Blood glucose level (blood glucose [1]; 120 min)?
Answer: 3.8

Question: And the Blood glucose level (blood glucose [1]; 150 min)?
Answer: 3.6

Question: What about the Blood glucose level (blood glucose [1]; 180 min) of the same substance?
Answer: 3.4

Question: And the Blood glucose level (blood glucose [1]; 210 min)?
Answer: 4.2

Question: What about the Blood glucose level (blood glucose [1]; 240 min) of the same substance?
Answer: 4.5

Question: What about the Blood glucose levels (blood glucose [2]; 0 min) of the same substance?
Answer: 6.8 mmol/L

Question: What about the Blood glucose levels (blood glucose [2]; 15 min) of the same substance?
Answer: 6.9 mmol/L

Question: And the Blood glucose levels (blood glucose [2]; 30 min)?
Answer: 6.1 mmol/L

Question: And the Blood glucose levels (blood glucose [2]; 45 min)?
Answer: 5.8 mmol/L

Question: And the Blood glucose levels (blood glucose [2]; 60 min)?
Answer: 5.8 mmol/L

Question: What about the Blood glucose levels (blood glucose [2]; 75 min) of the same substance?
Answer: 5.8 mmol/L

Question: What about the Blood glucose levels (blood glucose [2]; 90 min) of the same substance?
Answer: 5.4 mmol/L

Question: And the Blood glucose levels (blood glucose [2]; 105 min)?
Answer: 5.4 mmol/L

Question: And the Blood glucose levels (blood glucose [2]; 120 min)?
Answer: 5.2 mmol/L

Question: And the Blood glucose levels (blood glucose [2]; 135 min)?
Answer: 5.1 mmol/L

Question: And the Blood glucose levels (blood glucose [2]; 150 min)?
Answer: 4.9 mmol/L

Question: And the Blood glucose levels (blood glucose [2]; 165 min)?
Answer: 4.9 mmol/L

Question: And the Blood glucose levels (blood glucose [2]; 180 min)?
Answer: 4.8 mmol/L

Question: What about the Blood glucose levels (blood glucose [2]; 195 min) of the same substance?
Answer: 4.8 mmol/L

Question: What about the Blood glucose levels (blood glucose [2]; 210 min) of the same substance?
Answer: 5.2 mmol/L

Question: What about the Blood glucose levels (blood glucose [2]; 225 min) of the same substance?
Answer: 5.2 mmol/L

Question: And the Blood glucose levels (blood glucose [2]; 240 min)?
Answer: 5.4 mmol/L

Question: And the Blood glucose levels (blood glucose [3]; 0 min)?
Answer: 6.8 mmol/L

Question: And the Blood glucose levels (blood glucose [3]; 15 min)?
Answer: 7.0 mmol/L

Question: And the Blood glucose levels (blood glucose [3]; 30 min)?
Answer: 6.8 mmol/L

Question: And the Blood glucose levels (blood glucose [3]; 45 min)?
Answer: 6.3 mmol/L

Question: And the Blood glucose levels (blood glucose [3]; 60 min)?
Answer: 6.3 mmol/L

Question: And the Blood glucose levels (blood glucose [3]; 75 min)?
Answer: 5.8 mmol/L

Question: What about the Blood glucose levels (blood glucose [3]; 90 min) of the same substance?
Answer: 5.2 mmol/L

Question: And the Blood glucose levels (blood glucose [3]; 105 min)?
Answer: 5.0 mmol/L

Question: And the Blood glucose levels (blood glucose [3]; 120 min)?
Answer: 5.2 mmol/L

Question: And the Blood glucose levels (blood glucose [3]; 135 min)?
Answer: 4.2 mmol/L

Question: What about the Blood glucose levels (blood glucose [3]; 150 min) of the same substance?
Answer: 4.6 mmol/L

Question: And the Blood glucose levels (blood glucose [3]; 165 min)?
Answer: 4.0 mmol/L

Question: And the Blood glucose levels (blood glucose [3]; 180 min)?
Answer: 4.1 mmol/L

Question: And the Blood glucose levels (blood glucose [3]; 195 min)?
Answer: 4.3 mmol/L

Question: What about the Blood glucose levels (blood glucose [3]; 210 min) of the same substance?
Answer: 4.5 mmol/L

Question: And the Blood glucose levels (blood glucose [3]; 225 min)?
Answer: 4.7 mmol/L

Question: What about the Blood glucose levels (blood glucose [3]; 240 min) of the same substance?
Answer: 5.0 mmol/L

Question: What about the Blood glucose levels (meal glucose [4]; 0 min) of the same substance?
Answer: 5.5 mmol/L

Question: What about the Blood glucose levels (meal glucose [4]; 15 min) of the same substance?
Answer: 5.6 mmol/L

Question: And the Blood glucose levels (meal glucose [4]; 30 min)?
Answer: 5.4 mmol/L

Question: And the Blood glucose levels (meal glucose [4]; 45 min)?
Answer: 5.4 mmol/L

Question: And the Blood glucose levels (meal glucose [4]; 60 min)?
Answer: 5.6 mmol/L

Question: And the Blood glucose levels (meal glucose [4]; 75 min)?
Answer: 6.6 mmol/L

Question: And the Blood glucose levels (meal glucose [4]; 90 min)?
Answer: 7.0 mmol/L

Question: And the Blood glucose levels (meal glucose [4]; 105 min)?
Answer: 5.9 mmol/L

Question: And the Blood glucose levels (meal glucose [4]; 120 min)?
Answer: 5.6 mmol/L

Question: What about the Blood glucose levels (meal glucose [4]; 135 min) of the same substance?
Answer: 5.1 mmol/L

Question: And the Blood glucose levels (meal glucose [4]; 150 min)?
Answer: 4.8 mmol/L

Question: What about the Blood glucose levels (meal glucose [4]; 165 min) of the same substance?
Answer: 4.6 mmol/L

Question: And the Blood glucose levels (meal glucose [4]; 180 min)?
Answer: 4.3 mmol/L

Question: What about the Blood glucose levels (meal glucose [5]; 0 min) of the same substance?
Answer: 8.7 mmol/L

Question: And the Blood glucose levels (meal glucose [5]; 15 min)?
Answer: 8.8 mmol/L

Question: What about the Blood glucose levels (meal glucose [5]; 30 min) of the same substance?
Answer: 8.9 mmol/L

Question: And the Blood glucose levels (meal glucose [5]; 45 min)?
Answer: 10.1 mmol/L

Question: And the Blood glucose levels (meal glucose [5]; 60 min)?
Answer: 11.8 mmol/L

Question: What about the Blood glucose levels (meal glucose [5]; 75 min) of the same substance?
Answer: 11.8 mmol/L

Question: What about the Blood glucose levels (meal glucose [5]; 90 min) of the same substance?
Answer: 12.2 mmol/L

Question: What about the Blood glucose levels (meal glucose [5]; 105 min) of the same substance?
Answer: 11.2 mmol/L

Question: And the Blood glucose levels (meal glucose [5]; 120 min)?
Answer: 10.4 mmol/L

Question: And the Blood glucose levels (meal glucose [5]; 135 min)?
Answer: 8.4 mmol/L

Question: What about the Blood glucose levels (meal glucose [5]; 150 min) of the same substance?
Answer: 7.3 mmol/L

Question: What about the Blood glucose levels (meal glucose [5]; 165 min) of the same substance?
Answer: 6.5 mmol/L

Question: And the Blood glucose levels (meal glucose [5]; 180 min)?
Answer: 4.3 mmol/L

Question: And the Blood glucose levels (blood glucose [6]; 0 min)?
Answer: 7.9 mmol/L

Question: And the Blood glucose levels (blood glucose [6]; 15 min)?
Answer: 7.9 mmol/L

Question: What about the Blood glucose levels (blood glucose [6]; 30 min) of the same substance?
Answer: 8.2 mmol/L

Question: And the Blood glucose levels (blood glucose [6]; 45 min)?
Answer: 8.3 mmol/L

Question: And the Blood glucose levels (blood glucose [6]; 60 min)?
Answer: 7.6 mmol/L

Question: What about the Blood glucose levels (blood glucose [6]; 90 min) of the same substance?
Answer: 6.2 mmol/L

Question: What about the Blood glucose levels (blood glucose [6]; 120 min) of the same substance?
Answer: 5.2 mmol/L

Question: And the Blood glucose levels (blood glucose [6]; 150 min)?
Answer: 4.6 mmol/L

Question: What about the Blood glucose levels (blood glucose [6]; 180 min) of the same substance?
Answer: 3.9 mmol/L

Question: And the Blood glucose levels (blood glucose [6]; 210 min)?
Answer: 4.4 mmol/L

Question: What about the Blood glucose levels (blood glucose [6]; 240 min) of the same substance?
Answer: 5.2 mmol/L
